From patent US12503455B2, “Nucleic acid-binding photoprobes and uses thereof” (Arrakis Therapeutics, Inc., priority 2017, dated 2025)

Columns and labels:
Type in all cases: binding
[1] = system: Aptamer 21; assay: Capture of Aptamer 21 with click-biotinylated probes; conditions: Aptamer 21 or Aptamer 21-E
Description: A 50 μL sample of 1 μM folded Aptamer 21 or Aptamer 21-E solution in folding buffer (20 mM TrisHCl pH 8, 100 mM KCl, 3 mM MgCl2) was added to a 0.5 μL aliquot of 0.5 mM ARK-729, ARK-2058, ARK-816, or ARK-2059 in DMSO or a DMSO-only control. The solution was incubated at 37° C. for 1 h and then irradiated with long wave UV light (˜365 nm) for 30 min in a UV crosslinker (Fisher Scientific). To this solution was added 0.5 μL of 10 mM DBCO-biotin (Click Chemistry Tools, cat. #A105) and 2 μL of 0.5 M EDTA pH 8 and then the solution was incubated at 65° C. for 2 h. The RNA was ethanol precipitated by adding 35 μL of water, 2 uL of 5 mg/mL glycogen, 10 μL 3 M NaOAc pH 5, and 250 μL ethanol, incubating at −80° C. for 1 h, centrifuging at 20000×g for 30 min, washing the pellet twice with 500 μL of 70% ethanol, and then air drying the pellet.
The RNA pellet was redissolved in 50 μL of 1× bind/wash buffer (20 mM TrisHCl pH 7, 100 mM KCl, 0.1% Tween-20). A 50 μL aliquot of MyOne Streptavidin C1 Dynabead slurry (Thermo) was captured on a magnet, washed twice with 50 μL of 1× bind/wash buffer, and then resuspended in 50 μL of the crosslinked RNA sample. The bead suspension was rotated at room temperature for 30 min and then washed twice with 100 μL of 1× bind/wash solution. […]

[2] = system: Aptamer 21 spiked into polyA+ RNA extract; assay: Capture of Aptamer 21 from PolyA+ RNA extract; conditions: versus warhead-only control ARK-2059
Description: Total RNA was extracted from a pellet of 5×10^6 HepG2 cells using the ReliaPrep mini-prep kit (Promega) according to the manufacturer's standard protocol. The polyA+ RNA fraction was isolated from 50 μL sample of total RNA at 454 ng/μL using the magnetic mRNA isolation kit (New England Biolabs, cat #S1550) according to the manufacturer's standard protocol using 450 μL of lysis buffer and 100 μL of beads.
A sample of folded aptamer 21 RNA was spiked into a sample of polyA+ RNA extract at a final concentration of 1 nM aptamer 21 and 3 ng/μL polyA+ RNA. […]
Sequencing was performed on a single Illumina HiSeq 4000 lane with 150 bp paired-end reads using the standard manufacturer protocol.
Stitched reads were then processed with Cutadapt (http://dx.doi.org/10.14806/ej.17.1.200) with at least 5-nts of overlap and a maximum of 20% mismatches to simultaneously 1) define a unique 6-nt unique molecular identifier (UMI) in the correct adapter context (ATATAGGN6AGATCGG) (SEQ. […] UMIs were appended to read names, and reads were mapped the against the genome and transcriptome references (plus Aptamer 21) using the STAR aligner (http://dx.doi.org/10.1093/bioinformatics/bts635) with at most 10% mismatches. Groups of reads with identical or near-identical UMIs were then collapsed using the Directional Adjacency methods of UMI-tools (http://dx.doi.org/10.1101/gr.209601.116) with default parameters. […]

[3] = system: Aptamer 21; assay: Reverse transcriptase pausing (drop-off) gel assay of photo-crosslinking to Aptamer 21; conditions: 1 uM RNA, 10 uM probe (9 uM PreQ1 probe), UV ~360 nm
Description: (§1) A solution of RNA at 2 to 5 μM in nuclease-free water was heated to 95° C. for 3 min and then cooled on ice for 2 min. This solution was diluted with ½ volume of 3×RNA folding buffer (60 mM TrisHCl pH 8, 300 mM KCl, 9 mM MgCl2) and incubated at 37° C. for 20 min. Folding was carried out immediately before use of the RNA in each experiment. In cases where a mixture of RNA molecules was used in vitro the RNAs were folded separately and then combined prior to the probing experiment.
Folded RNA (1 μM) was incubated with the photoaffinity probe (10 μM) in total 25 μL of buffer (20 mM TrisHCl pH 8, 100 mM KCl, 3 mM MgCl2) with 2.5% DMSO for 30 min at 37° C. to allow binding to come to equilibrium. The sample was then irradiated with long wave UV light (˜365 nm) for 30 min in a UV crosslinker (Fisher Scientific).
(§2) A 3.75 μL aliquot of 10 μM reverse transcription primer was added to the cross-linked RNA sample, which was then incubated for 5 min at 65° C. and then cooled on ice. The sample was then diluted to a final volume of 60 μL and final buffer concentration of 1× Protoscript-II buffer (New England Biolabs), 0.5 mM dNTPs, 10 mM DTT, 0.4 U/μL RNase Inhibitor (New England Biolabs), and 10 U/μL Protoscript-II (New England Biolabs). The reaction was incubated at 45° C. for 2 h, 65° C. for 20 min, and then 4° C.
The RNA was hydrolyzed by the addition of 4.8 μL of 2.5 M NaOH and heating at 95° C. for 5 min. The reaction was quenched by the addition of 0.9 μL of acetic acid. The cDNA was precipitated by the addition of 6.6 μL of 3 M sodium acetate pH 5 and 181 μL ethanol, cooling to −80° C. for 1 h, and then centrifuging at 20,500×g at 4° C. for 30 min. The cDNA pellet was washed twice with 500 μL of 70% ethanol and then air dried for 5 min.
The cDNA pellet was resuspended in 12 μL of 1×TBE-urea sample loading buffer (Bio-Rad) and heated to 95° C. for 5 min. The sample was then run on a pre-cast 8.6×6.7 cm TBE-urea 10% PAGE gel (Bio-Rad) at 120 V until the lower bromophenol blue dye reached the bottom of the gel. The gel was stained with 1×SYBR-gold (Invitrogen) in 1×TBE buffer at room temperature for 20 min covered from light. The gel fluorescence was imaged on an Azure c600 instrument.

[4] = system: PreQ1 RNA; assay: Reverse transcriptase pausing gel assay of photo-crosslinking to PreQ1 RNA; conditions: 1 uM RNA, 9 uM PreQ1 probe, UV ~360 nm
Description: as §1
[…] The sample was then irradiated with long wave UV light (˜365 nm) for 30 min in a UV crosslinker (Fisher Scientific).
as §2
The RNA was hydrolyzed by the addition of 4.8 μL of 2.5 M NaOH and heating at 95° C. for 5 min. […]
The cDNA pellet was resuspended in 12 μL of 1×TBE-urea sample loading buffer (Bio-Rad) and heated to 95° C. for 5 min. […] The gel fluorescence was imaged on an Azure c600 instrument.

cross-linking with Apt21 RNA (RT pausing) [3]	cross-linking to PreQ1 RNA (RT pausing) [4]	SMILES	RT pausing peaks after click-biotinylation and avidin bead enrichment [1]	enrichment analysis of Aptamer 21 from PolyA+ RNA extract ([2]; avidin capture, next-generation sequencing)	RT pausing ratio peaks on Aptamer 21 spiked into PolyA+ RNA extract ([2]; extract from HepG2 cells)
–	–	COC(=O)C1=C(COCc2cn(CCOCCOCCC(=O)NCCC3(CCN=[N+]=[N-])N=N3)nn2)NC(c2ccncc2)=NC1c1ccc(F)cc1Cl (centres unmarked) [ARK-816]	RT pausing peaks specific to Aptamer 21	Enrichment of the sites of probe-specific RT pausing on Aptamer 21 was observed	observed at the same positions as for isolated Aptamer 21
does not show cross-linking	does not show cross-linking	CC1(CCC(=O)NCCOCCOCCNCc2c[nH]c3nc(N)[nH]c(=O)c23)N=N1 [I-23]	–	–	–
